The record followed here is patent publication KR20170076438A, “필리게닌을 포함하는 피부상태 개선용 조성물” (주식회사 엘지생활건강, priority 2015, dated 2017).

Assay [1] relates to type I collagen [제1형 콜라겐(type I collagen)]. Description: Type I collagen synthesis in human-derived fibroblasts (PICP EIA kit). It is filed as cell-based. As to conditions: 48 h culture, n=4; for type I collagen synthesis amount: negative control 150.2; for increase rate (type I collagen synthesis): relative to untreated control.
Assay [2] concerns the target T1, elastase [엘라스테이즈(Elastase)] (Homo sapiens, UniProt P08246).
T1 construct: 엘라스테이즈(Elastase)는 사람의 백혈구 세포로부터 유래한 엘라스테이즈를 사용하였고; from tissue; host or cells: human leukocytes (사람의 백혈구 세포)
T1 sequence (P08246 30-267): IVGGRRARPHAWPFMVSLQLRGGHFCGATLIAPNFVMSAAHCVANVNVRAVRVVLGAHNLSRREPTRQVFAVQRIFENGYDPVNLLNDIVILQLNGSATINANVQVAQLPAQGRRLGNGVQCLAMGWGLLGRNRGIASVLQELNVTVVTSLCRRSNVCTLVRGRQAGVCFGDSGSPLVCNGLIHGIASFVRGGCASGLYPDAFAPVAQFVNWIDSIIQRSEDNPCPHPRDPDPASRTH
Put plainly: Elastase activity inhibition (human leukocyte elastase, MeOSuc-Ala-Ala-Pro-Val-pNA). The class given is biochemical. As to conditions: for enzyme activity: slope of absorbance at 405 nm vs time, room temperature, 20 min, n=3, DMSO control 10.4.

Assay [3] in a line: Anti-glycation assay (L-arginine and glucose, absorbance at 420 nm). The class given is biochemical. As to conditions: pH 7.4, 70 ℃, 4 h, 0.1 M glucose.
The subject of assay [4] is nitric oxide (NO) production in RAW264.7 cells [RAW264.7 세포주, Nitric oxide(NO)]. Put plainly: NO production inhibition in LPS-stimulated RAW264.7 cells (GRIESS method). As to conditions: Mus musculus, LPS 1 μg, 24 h, 540 nm, read-out: NO production inhibition rate. The class given is cell-based. In general terms: Griess reagent forms a coloured azo dye with nitrite.
Assay [5] has as its system B-16 mouse melanoma cell [쥐의 멜라노마 세포(B-16 mouse melanoma cell)]. Description: Total melanin amount in B-16 mouse melanoma cells. It is filed as cell-based. The settings on record: 3 days; for melanin production amount: absorbance at 400 nm per 1×10^6 cells, DMSO control 0.33.
Where [6] appears, read: pH 7.5, read-out: inhibition rate (elastase).
Where [7] appears, read: Mus musculus, 72 h, 10 ppm, relative to control, read-out: increase rate (total melanin).

Structures are written as SMILES.

Take `COc1cc([C@H]2OC[C@H]3[C@@H]2CO[C@H]3c2ccc(OC)c(OC)c2)ccc1O` [화학식1의 화합물, phillygenin]: the results for the “type I collagen synthesis amount” value in assay [1] (1 ppm) and in assay [1] (10 ppm) were 187.6 ng/mL and 234.7 ng/mL, respectively. Further, the “increase rate (type I collagen synthesis)” value in assay [1] (1 ppm) was determined as 24.9%; in assay [1] (10 ppm), 56.3%. In addition, the enzyme activity in assay [2] (10 ppm) is reported as 3.9; in assay [2] (20 ppm) it was 3.5. In addition, the inhibition (in general, the change of the read-out against control, counted positive when it falls) at 10 ppm in assay [2] (setting [6]) came out at 62.5%; in assay [4] it was 20.6%. Further, in assay [2] (setting [6]), the inhibition at 20 ppm came out at 66.3%. The “inhibition rate (glycation)” value in assay [3] (25 ppm) stood at 32.68%; in assay [3] (50 ppm) it was 55.64%. Moreover, in assay [4] (1 ppm), the inhibition at 1 ppm was 17.9%. Further, in assay [4] (100 ppm), the inhibition at 100 ppm came out at 51.7%. Further, the results for the melanin production amount in assay [5] (1 ppm) and in assay [5] (10 ppm) were 0.359 abs and 0.403 abs, respectively. For the same molecule, in assay [5] (Mus musculus, 72 h, 1 ppm, relative to control, read-out: increase rate (total melanin)), the activation at 1 ppm turned out to be 8.79%. For the same molecule, in assay [5] (setting [7]), the activation at 10 ppm amounted to 22.1%.
As for `O=C1O[C@H]([C@@H](O)CO)C(O)=C1O` [비타민 C, reference compound], in assay [1] (52.85 ppm (52.85 ㎍/ml)), the “type I collagen synthesis amount” value amounted to 246.8 ng/mL and the “increase rate (type I collagen synthesis)” value came out at 64.3%.
As to `N=C(N)NN` [Aminoguanidine, reference compound], the “inhibition rate (glycation)” value in assay [3] (55 ppm) came to 54.89%.
As to `CNC(=N)NCCC[C@H](N)C(=O)O` [L-NMMA, L-NG-Monomethylarginine, reference compound], the inhibition at 10 ppm in assay [4] was 41%.
Molecule `C=C[C@@]1(C)CC(=O)[C@]2(O)[C@@]3(C)[C@@H](O)CCC(C)(C)[C@@H]3[C@H](O)[C@H](OC(C)=O)[C@@]2(C)O1` [Forskolin, reference compound] came in with a melanin production amount in assay [5] (10 ppm) of 0.792 abs. Besides, the activation at 10 ppm in assay [5] (setting [7]) worked out at 140%.
